Measured values: patent US12629392B2, “Method of treating covid-19 infection using superparamagnetic iron oxide nanoparticle” (Imam Abdulrahman Bin Faisal University, priority 2023, dated 2026)

Tests used:
[1] = test system: HEK293 cells; test: Cell viability (MTT) assay, HEK293 cells; type: cell-based, human; conditions: 48 hours, two-way ANOVA with Dunnett's
[2] = test system: A549 cells; test: Cell viability (MTT) assay, A549 cells; type: cell-based, human; conditions: 48 hours, two-way ANOVA with Dunnett's
[3] = Dose 1 (0.025 mg/ml nanocomposite; 0.001125 mg/ml free Cp, Rib)
[4] = Dose 2 (0.05 mg/ml nanocomposite; 0.00225 mg/ml free Cp, Rib)
[5] = Dose 3 (0.1 mg/ml nanocomposite; 0.0045 mg/ml free Cp, Rib)
[6] = Dose 4 (0.5 mg/ml nanocomposite; 0.0225 mg/ml free Cp, Rib)

| SMILES | Significant (cell viability vs no-treatment control) [1, 3] | Significant (cell viability vs no-treatment control) [1, 4] | Significant (cell viability vs no-treatment control) [1, 5] | Significant (cell viability vs no-treatment control) [1, 6] | Significant (cell viability vs no-treatment control) [2, 3] | Significant (cell viability vs no-treatment control) [2, 4] | Significant (cell viability vs no-treatment control) [2, 5] | Significant (cell viability vs no-treatment control) [2, 6] |
| --- | --- | --- | --- | --- | --- | --- | --- | --- |
| N.N.[Cl][Pt][Cl] [Cp, cisplatin] | No | No | No | Yes | No | No | No | Yes |
| NC(=O)c1ncn([C@@H]2O[C@H](CO)[C@@H](O)[C@H]2O)n1 [Rib, 1-β-D-Ribofuranosyl-1,2,4-triazole-3-carboxamide] | No | No | Yes | Yes | No | No | No | Yes |
